Measured values taken from publication PMC7589326, “Synthesis and Pharmacological Evaluation of Fluorinated Quinoxaline‐Based κ‐Opioid Receptor (KOR) Agonists Designed for PET Studies” (Chemmedchem, 2020).
“Also recorded” adds a separate entry of the source.

How the values were obtained:
[1] = In vivo biodistribution, small animal PET in C57BL/6 mice; parameters: species or system mouse; details: C57BL/6 mice, intravenous injection
Description: Next, the distribution of the PET tracer [^18F]‐2 in mice was investigated. For this purpose, [^18F]‐2 was injected into 15‐week‐old C57BL/6 mice. […] Already after 2 min the radioactivity was almost completely found in liver, kidneys and bladder. In the liver, the radioactivity remained almost constant over the period of 90 min (Figure 6). Besides a transient local increase in radioactivity in the submandibular and harderian glands, no significant accumulation of [^18F]‐2 in non‐excreting organs such as heart, lung and muscles as indicator for unspecific binding could be detected.
Adult C57BL/6 mice (n=2 male, 15 weeks, 28 g for [^18F]‐2; n=2, male, 10 weeks, 25 g for [^18F]‐14c) were anesthetized by isoflurane/O2 and one lateral tail vein was cannulated BY using a 27 G needle connected to 15 cm polyethylene catheter tubing. Radiotracers (∼500 kBq/g bodyweight, 15 MBq) were injected as a bolus (50 μL compound flushed with 100 μL saline) via the tail vein and subsequent PET scanning was performed.
Small Animal PET Scanning. PET experiments were carried out using a submillimeter high resolution (0.7 mm full width at half‐maximum) small animal scanner (32 module quadHIDAC, Oxford Positron Systems Ltd., Oxford, UK) with uniform spatial resolution (<1 mm) over a large cylindrical field (165 mm diameter, 280 mm axial length). List‐mode data were acquired for 90 min and reconstructed into dynamic time frames using an iterative reconstruction algorithm. Subsequently, the scanning bed was transferred to the computed tomography (CT) scanner (Inveon, Siemens Medical Solutions, U.S.), and a CT acquisition with a spatial resolution of 80 μm was performed for each mouse. Reconstructed image data sets were coregistered based on extrinsic markers attached to the multimodal scanning bed and the in‐house developed image analysis software MEDgical. Three‐dimensional volumes of interest (VOIs) were defined over the respective organs in CT data sets, transferred to the coregistered PET data, and analyzed quantitatively. Regional uptake was calculated as percentage of injected dose by dividing counts per milliliter in the VOI by total counts in the mouse multiplied by 100 (%ID/mL).

[2] = Biostability and biotransformation in mice in vivo (radio-HPLC of pooled blood); parameters: species or system mouse; details: pooled blood of three mice, 90 min after injection
Description: In order to investigate the in vivo biotransformation of [^18F]‐2, the blood of three mice 90 min after injection of [^18F]‐2 was pooled and analyzed.
Approximately 72 MBq of [^18F]‐2 (in a volume of 100 μL) were injected into the tail vein of each of three 11‐week‐old C57/BL6 mice. The animals were sacrificed 90 min after injection. Whole blood of the three mice was pooled (∼2 mL) and centrifuged (3 min) to isolate plasma. Plasma (∼0.7 mL) was separated and mixed with ice‐cold CH3CN (1.4 mL). After further centrifugation for 5 min, the supernatant was separated and evaporated to dryness in vacuo at moderate temperatures (≤60 °C). The residue was dissolved in water for injection (20 μL) and the solution was analyzed by analytical radio‐HPLC B, method B.

[3] = Distribution coefficient logD7.4, shake flask method with radioligand; assay type: physicochemical; details: n-octanol / phosphate buffered saline pH 7.4
Description: The distribution coefficient at pH 7.4 (logD7.4) was determined by a shake flask method using the radioligand [^18F]‐2. After distribution of [^18F]‐2 between n‐octanol and phosphate buffered saline (pH 7.4) layers, the radioactivity in both layers was determined and set in ratio. According to this procedure, a logD7.4 value of 1.37±0.06 was determined indicating a moderate lipophilic compound, which should be able to penetrate into the central nervous system.
The lipophilicity of radioligands [^18F]‐2 and [^18F]‐14c was assessed by determination of the water n‐octan‐1‐ol distribution coefficient (logD) following a published procedure.57 In brief, approximately 3.2 MBq of radioligand [^18F]‐2 and approximately 0.3 MBq of radiotracer [^18F]‐14c, respectively, were mixed with equal amounts (0.6 mL) of phosphate buffered saline (PBS, pH 7.4) and n‐octan‐1‐ol. The resulting biphasic system was mixed vigorously for 3 min at room temperature and subsequently, the tubes were centrifuged (≥5 min). Then 400 μL of the n‐octan‐1‐ol layer was separated and 400 μL of PBS were added. The mixture was mixed vigorously for 10 min at room temperature followed by centrifugation of the tubes for≥5 min. Two samples of 100 μL of each layer were counted in a γ‐counter (2480 Automatic Gamma Counter Wizard^2, Perkin‐Elmer). The distribution coefficient was determined by calculating the ratio cpm(n‐octan‐1‐ol)/cpm(PBS) and expressed as logD 7.4 (log(cpmn‐octanol/cpmPBS)). Three independent experiments were performed in duplicate and data were provided as mean values ±standard deviation.

[4] = Stability in mouse serum (radio-HPLC); assay type: in vitro ADME; details: 90 min, 37 °C
Description: (§1) Enzymes present in blood serum could be able to transform the radioactive PET tracer [^18F]‐2. Therefore, the blood serum stability of [^18F]‐2 was investigated before testing the tracer in vivo. [^18F]‐2 was incubated with mouse and human serum for 90 min at 37 °C.
(§2) The serum stability of radioligands [^18F]‐2 and [^18F]‐14c was evaluated by incubation in mouse or human serum at 37 °C for up to 90 min. An aliquot of formulated [^18F]‐2 or [^18F]‐14c (20 μL, ca. 6.6 MBq and ca.10 MBq, respectively) was added to a sample of mouse serum (200 μL) or human serum (200 μL), and the mixtures were incubated at 37 °C. Samples of 20 μL each were taken after periods of 10, 30, 60 and 90 min and ice‐cold DNA‐grade CH3CN (100 μL) were added. After centrifugation for ≥5 min, the supernatant was analyzed by analytical radio‐HPLC B, method B.

[5] = Stability in human serum (radio-HPLC); assay type: in vitro ADME; details: 90 min, 37 °C
Description: as §1, §2

[6] = In vitro biotransformation with mouse liver microsomes and NADPH (LC-MS/MS); details: mouse liver microsomes, NADPH, 90 min
KOR [7] = target: T1, KOR (Homo sapiens, UniProt P41145); parameters: expressed in transfected cells; host or cells: HEK 293T (ATCC CRL-11268); method as in PMID 30543421; details: human HEK 293T cells; refers to U-50,488 (100 %); cited from earlier work
Target sequence in this assay (P41145 whole entry): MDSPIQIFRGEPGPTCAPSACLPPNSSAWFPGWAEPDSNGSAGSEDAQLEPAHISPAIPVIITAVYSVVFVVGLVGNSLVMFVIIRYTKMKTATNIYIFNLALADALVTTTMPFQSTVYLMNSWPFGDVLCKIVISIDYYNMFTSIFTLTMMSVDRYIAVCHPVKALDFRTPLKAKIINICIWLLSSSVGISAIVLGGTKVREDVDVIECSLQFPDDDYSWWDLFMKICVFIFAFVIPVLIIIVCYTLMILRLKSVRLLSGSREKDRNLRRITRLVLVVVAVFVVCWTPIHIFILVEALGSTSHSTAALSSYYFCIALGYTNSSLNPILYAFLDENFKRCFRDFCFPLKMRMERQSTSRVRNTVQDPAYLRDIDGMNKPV

MOG induced EAE = details: mouse, in vivo; cited from earlier work
KOR [8] = target: T1, KOR; parameters: expressed in transfected cells; host or cells: HTLA cells (stably expressing TEV-fused β-arrestin2); method as in PMID 30543421; details: human HTLA cells; refers to U-50,488 (100 %); cited from earlier work
Target sequence in this assay (P41145 whole entry): as above
Target sequence in this assay (P32121 whole entry partner): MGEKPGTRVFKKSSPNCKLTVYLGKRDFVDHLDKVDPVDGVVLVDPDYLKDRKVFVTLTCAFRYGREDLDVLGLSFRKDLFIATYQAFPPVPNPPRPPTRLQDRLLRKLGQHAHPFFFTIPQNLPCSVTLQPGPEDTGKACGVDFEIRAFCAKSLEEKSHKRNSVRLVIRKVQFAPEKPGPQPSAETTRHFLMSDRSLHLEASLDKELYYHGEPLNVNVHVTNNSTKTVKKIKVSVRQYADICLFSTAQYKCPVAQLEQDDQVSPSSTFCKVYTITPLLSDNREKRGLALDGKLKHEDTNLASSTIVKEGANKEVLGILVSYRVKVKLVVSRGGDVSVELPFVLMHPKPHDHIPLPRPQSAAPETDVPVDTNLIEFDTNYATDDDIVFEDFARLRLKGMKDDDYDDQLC

With `O=C(Cc1ccc(Cl)c(Cl)c1)N1CCN(Cc2cn(CC[18F])nn2)[C@H]2CCC[C@H](N3CCCC3)[C@H]21` [[^18F]‐2, 2‐(3,4‐Dichlorophenyl)‐1‐((4aR,8R,8aS)‐ and ((4aS,8S,8aR)‐ 4‐{[1‐(2‐[^18F]fluoroethyl)‐1H‐1,2,3‐triazol‐4‐yl]methyl}‐8‐ (pyrrolidin‐1‐yl)‐3,4,4 a,5,6,7,8,8 a‐octahydroquinoxalin‐ 1(2H)‐yl)ethan‐1‐one] the “radioactivity in the bones / defluorination” value [1] was “increased radioactivity in the bones was not observed”, the “enrichment of radioactivity in brain or spinal cord (PET images)” value ([1]; 90 min observation) was “do not show any enrichment of radioactivity in the brain or spinal cord” and the “clearance from the body” value ([1]; hepatic and renal pathways) was “very fast and efficient clearance”. The “intact PET tracer in blood” value [2] was 90%, the logD [3] was 1.37 ± 0.06 and the “stability in mouse serum” value [4] was “high stability”. The “stability in human serum” value [5] was “high stability”.

For `O=C(Cc1ccc(Cl)c(Cl)c1)N1CCNC2CCCC(N3CCC(F)C3)C21` (centres unmarked) [14c‐5], the “amount of metabolite formed from 14c” value [6] was “minor amounts”.

For `O=C(Cc1ccc(Cl)c(Cl)c1)N1CCN(Cc2cn(CCF)nn2)C2CCCC(N3CCCC3)C21` (centres unmarked) [compound 2], the “cAMP E max” value (KOR [7]) is given as 103%, the “protection from MS-like symptoms / disease severity in EAE” value (MOG induced EAE) is given as “significantly decreased diseases severity and delayed disease onset; also recorded: almost complete protection” and the “β-Arrestin-2 E max” value (KOR [8]) is given as 86%.
